Laboratory results reported in patent US8008354B2, “Death receptor sensitizing compounds and methods of use therefor” (Burnham Institute for Medical Research, priority 2006, dated 2011).

Assays:
[1] = system: PC-3, DU-145, LNCaP, T47D, MB-MDA-468 and OVCAR-3 cells; assay: Anoikis of additional malignant cell lines: colony formation after suspension culture; format: cell-based
Method: FIG. 14. Tumor cell sensitivity to anoikis correlates with sensitivity to Fas-mediated apoptosis. PC-3, DU-145, and LNCaP prostate, T47D and MB-MDA-468 breast, and OVCAR-3 ovarian cancer cells were cultured under adherent conditions with increasing concentrations of 5809354, in the presence or absence of Fas-activating antibody (CH-11, 100 ng/mL). Thirty hours after incubation, cell viability was determined using the MTS assay. Cell lines were also cultured under suspension conditions in the presence or absence of 5809354. Thirty hours after incubation, equal volumes of suspension-cultured cells were replated in a colony formation assay. Data represents the mean±SEM percent of viable cells or colonies compared to untreated controls.
Cell viability apoptosis, colony formation, and caspase activation assays. Cell viability was assessed using the MTS reduction assay (Promega, Madison, Wis., USA) according to the manufacturer's protocols and as described in Schimmer et al. (2006). Apoptosis was measured by flow cytometry to detect cell surface annexin V expression and propidium iodide (PI) uptake (Biovision, Mountain View, Calif., USA) as described in Carter et al. (2005). […] Clonogenic growth after suspension culture was measured using colony formation assays. […] Colonies were fixed, stained with methylene blue, and counted. […]

PPC-1 cells = assay: MTS viability of adherent PPC-1 cells with or without CH-11, thirty hours; format: cell-based, human; conditions: CH-11 100 ng/mL
Method: FIG. 13. Small molecule down-regulation of FLIP sensitizes prostate cancer cells to anoikis. (A) PPC-1 cells were seeded overnight in adherent conditions and then treated with increasing concentrations of 5809354 for 16 hours. After incubation, cells were harvested. Total cellular RNA was extracted and mRNA levels of the long isoform of FLIP (FLIPL), the short isoform of FLIP (FLIPS), or rRNA levels of 18S were detected by real-time RT-PCR. Data were normalized using the ΔΔCT method and expressed as the mean±SEM percent of […] expression relative to untreated controls. (B) PPC-1 cells were cultured and treated as in panel A. Total cellular protein was isolated and analyzed by SDS-PAGE immunoblotting using anti-FLIP and anti-Actin antibodies. […] Thirty hours after incubation, cell viability was determined using the MTS assay. […] After incubation, apoptosis was measured by flow cytometry to detect cell surface annexin V expression and PI. […] (E) Cells were harvested, fixed, stained with DAPI, and nuclear morphology analyzed by fluorescence microscopy. […] One week later, cells were stained with methylene blue and the number of colonies counted. […]
Cell viability apoptosis, colony formation, and caspase activation assays. Cell viability was assessed using the MTS reduction assay (Promega, Madison, Wis., USA) according to the manufacturer's protocols and as described in Schimmer et al. (2006). […]

Question: Which results are given for “4-(4-chloro-2-methylphenoxy)-N-hydroxybutanamide [compound 5809354]”?
Answer: sensitization to anoikis ([1]; LNCaP or MB-MDA-468 cells): did not sensitize; sensitization to anoikis ([1]; PC-3 and DU-145 prostate, T47D breast and OVCAR-3 ovarian cancer cell lines): sensitized; viability in the presence of Fas-activating antibody (CH-11) (PPC-1 cells): decreases in viability
